In patent US20240252432A1, “COMPOSITIONS, METHODS AND SYSTEMS FOR AEROSOL DRUG DELIVERY” (ASTRAZENECA PHARMACEUTICALS LP, priority 2021, published 2024):
Read-outs that look alike come from different tables or passages of the source.

Columns and labels:
[1] = cited from earlier work
[2] = Particle size distribution by laser diffraction; assay type: physicochemical
Excerpt: When referred to herein, the term “optical diameter” indicates the size of a particle as measured by the Fraunhofer diffraction mode using a laser diffraction particle size analyzer equipped with a dry powder dispenser (e.g., Sympatec GmbH, Clasthal-Zellerfeld, Germany).
Suspending particles were manufactured by spray drying an emulsion of PFOB (perfluorooctyl bromide) and water stabilized by DSPC (1,2-Distearoyl-sn-Glycero-3-Phosphocholine). […] The particle size distribution of the suspending particles was determined by laser diffraction.
Active agent particles formed of budesonide, 16,17-(butylidenebis(oxy))-11,21-dihydroxy-(11-β,16-α)-pregna-1,4-diene-3,20-dione, were formed by micronizing budesonide using a jet mill. The particle size distribution of the budesonide (BD) was determined by laser diffraction.

[3] = Aerodynamic particle size distribution by NGI of BDA formulations (Example 5); assay type: physicochemical; details: dual co-suspension of budesonide and albuterol in HFO-1234ze(E); stored valve down, protected, 25° C./60% RH
[4] = Aerodynamic particle size distribution by NGI of BFF formulations (Example 4); assay type: physicochemical; details: dual co-suspension of budesonide and formoterol in HFO-1234ze(E); stored valve down, protected, 25° C./60% RH

Compound	Water Solubility in Propellant ([1]; @25)	optical diameter below which 50% by volume of the particles lie [2]	optical diameter below which 90% by volume of the particles lie [2]	other results
CC(F)F [HFC-152a, 1,1-Difluoroethane]	2100@25 ppm	–	–	–
FC(C(F)(F)F)C(F)(F)F [HFA-227ea, 1,1,1,2,3,3,3-Heptafluoropropane]	610@25 ppm	–	–	–
C=C(F)C(F)(F)F [HFO-1234yf, 2,3,3,3-Tetrafluoropropene]	–	–	–	Water Solubility in Propellant ([1]; @24): 200@24 ppm
albuterol sulfate	–	smaller than 1.5 μm	smaller than 3.3 μm	–
FCC(F)(F)F [HFA-134a, 1,1,1,2-tetrafluoroethane]	1100@25 ppm	–	–	–
COc1ccc(CC(C)NCC(O)c2ccc(O)c(NC=O)c2)cc1.O=C(O)/C=C/C(=O)O (racemic) [formoterol fumarate, (±)-2-hydroxy-5-[(1RS)-1-hydroxy-2-[[(1RS)-2-(4-methoxyphenyl)-1-methylethyl]-amino]ethyl]formanilide fumarate]	–	smaller than 1.6 μm	smaller than 3.9 μm	–
C[N+]1(C)CCC(OC(=O)C(O)(c2ccccc2)C2CCCC2)C1.[Br-] (centres unmarked) [glycopyrrolate, Pyrrolidinium, 3-((cyclopentylhydroxyphenylacetyl)oxy)-1,1-dimethyl-, bromide]	–	smaller than 2.1 μm	smaller than 5 μm	–
CCCC1O[C@@H]2C[C@H]3[C@@H]4CCC5=CC(=O)C=C[C@]5(C)[C@H]4[C@@H](O)C[C@]3(C)[C@]2(C(=O)CO)O1 (stereo partly drawn) [budesonide, 16,17-(butylidenebis(oxy))-11,21-dihydroxy-(11-β,16-α)-pregna-1,4-diene-3,20-dione]	–	–	–	stability of aPSD by NGI [3]: stable for twelve months; stability of aPSD by NGI [4]: stable for twelve months
CCCCCCCCCCCCCCCCCC(=O)OC[C@H](COP(=O)([O-])OCC[N+](C)(C)C)OC(=O)CCCCCCCCCCCCCCCCC [DSPC, 1,2-Distearoyl-sn-glycero-3-phosphocholine]	–	–	–	stability of aPSD by NGI [4]: stable for twelve months
FC=CC(F)(F)F [HFO-1234ze, 1,3,3,3-tetrafluoropropene]	–	–	–	Water Solubility in Propellant ([1]; @20): 225@20 ppm
